Counter-ions that a name gives are not always drawn. Like-named read-outs stand apart in the source and are kept apart here.
Legend:
Sprague Dawley rats = assay: Rat Brief-Access Taste Aversion (BATA) model; assay type: in vivo
Method: The rat ‘Brief-Access Taste Aversion’ (BATA) model was used to assess the taste of the midazolam chocolate tablet formulation relative to control samples. Ten male Sprague Dawley rats (average weight […]) previously trained for the experiments were used and two independent tasting evaluations were conducted over 2 days.
Prior to the experiments, the rats were water-deprived for 22 hours but had access to food ad libitum. Each rat was placed into the Lickometer Davis Rig MS-160 (DiLog Instruments, Tallahassee, Fla., USA) for a 40-minute session where it would be presented with 16 sipper tubes mounted on a moving rack controlled by the Davis Collect Data software. The taste samples were each presented to the rat for 8 seconds, in a random order specified by the computer program. Over the 40-minute session, a sample would have been presented to the rat four times, with a 2-second water rinse given between samples. As the rats licked on the sipper, the number of licks was recorded electronically and transmitted to a database on a computer.
The 5 mg midazolam HCl chocolate tablets were assessed against control samples, which included deionized water, vehicle (water adjusted to pH 5 with HCl), 1 mg/mL solution of midazolam in the vehicle, a 2.5 mg/mL oral midazolam syrup manufactured by AUSPMAN, and chocolate placebo tablets. Simulating the advice to patients to chew the chocolate tablet and then swallow, the placebo and midazolam-loaded chocolate tablets were prepared for the taste evaluation by grinding each chocolate tablet in 2 mL of water, which mimics the volume of saliva, using a mortar and pestle. The resultant liquid preparations were then presented to the rats. […]
Aversion to the taste of a sample was indicated by a significant reduction in the number of licks when the sample was presented to the rats. […] Data was analysed using the RStudio software (https://www.rstudio.com) and applying the non-parametric Kruskal Wallis test with post-hoc Tukey's test for paired comparisons.

[1] = cited from earlier work
[2] = cited from earlier work; remark: listed apart in the source

For `Cc1ncc2n1-c1ccc(Cl)cc1C(c1ccccc1F)=NC2` [midazolam HCl, midazolam hydrochloride], the IC50 (Sprague Dawley rats; Rattus norvegicus, midazolam HCl standard solutions in vehicle (water pH 5), n=2, read-out: IC50 (dose-response of number of licks)) was 300 ± 290 µg/mL, the “detection threshold for the bitter taste” value (Sprague Dawley rats; rodent model) was “about 0.03 mg/ml” and the “concentration receiving comparable numbers of licks to blank vehicle” value (Sprague Dawley rats; standard solutions in vehicle) was “up to 0.03 mg/mL”.
In the case of `COc1cccc(C2(O)CCCCC2CN(C)C)c1` (stereo not drawn) [tramadol HCl, tramadol hydrochloride], the “solubility in aqueous media” value [1] is given as at most 2000 µg/mL.
In the case of `Cc1ncc2n1-c1ccc(Cl)cc1C(c1ccccc1F)=NC2` [Midazolam, midazolam], the solubility in water ([2]; low pH) is listed as over 2500 µg/mL and the solubility in water ([2]; pH>5) is listed as “less than 0.1 mg/ml”.

Reference: US11331268B2, “Taste masking product” (The University of Western Australia, priority 2016, dated 2022)
